# Measured values reported in patent US4122184A, “Benzimidazole insecticides” (priority 1977, dated 1978).
# Columns and labels:
# Melon Aphid = Melon Aphid Test; format: in vivo, Aphis gossypii (Hemiptera); conditions: 24 h
# Excerpt: Four blue hubbard squash seeds are planted per container in vermiculite and the containers watered from the bottom. After 6 days, the two weakest plants are cut off and one cotyledon and the primary leaves are removed from each of the two remaining plants. The remaining cotyledon is infested with 100 melon aphids from a stock colony by pinning the cotyledon against an aphid-infested squash cotyledon from the colony and allowing the aphids to transfer. After transfer, the colony leaf is removed. Forty-eight hours later, the infested leaves are sprayed to wetting with formulations containing graded amounts of the insecticide using a DeVilbiss atomizer at 10 psi held at 12-15 inches from the plant. Controls consist of two infested, unsprayed squash plants and two infested plants sprayed to wetting with a formulation containing 100 ppm malathion as a reference standard. The mortality is estimated 24 hours after spraying by observation using a 10 power dissecting microscope. The same rating scale is used as before.
# [1] = system: Tarnished Plant Bug Adults; assay: Field trial, stomach poison test; format: in vivo; design: key: mortality rating on a 0 to 9 scale
# How it was run: (§1)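 Stomach-poison feeding test on leaves taken from the infested plant and treated by atomizer spraying at 10 psi or by dipping, then air-dried. Dishes hold five or ten insects, with one or two replicates per rate; reported values average mortality on a 0 to 9 rating scale, read at 24, 48 and 72 hours.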
# [2] = system: Unidentified Green Leafhopper; assay: Field trial, stomach poison test; format: in vivo; design: key: mortality rating on a 0 to 9 scale
# How it was run: as §1
# Alfalfa Weevil Larvae [3] = assay: Field trial, contact poison test; format: in vivo
# How it was run: (§2)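 Contact spray, atomizer 10 psi, arm's length, several concentrations; infested plants in water bottles, stems wrapped in cellucotton, plants spaced apart. Scored 24, 48, 72 h; scale 0–9 by percent mortality.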
# [4] = system: Potato Flea Beetle Adults; assay: Field trial, contact poison test; format: in vivo
# How it was run: as §2
# Alfalfa Weevil Larvae [5] = assay: Field trial, topical application; format: in vivo
# Experimental: The results are read at 24, 48, and 72 hours when applicable. The rating scale is 0 to 9 where 0 = 0-10 percent and 9 = 91-100 percent mortality.
# In a variation of the above test, 1 microliter of a test solution containing a predetermined number of micrograms of benzimidazole was applied directly to larvae or adult insects.
# Using the above methods, field trials were carried out against species of 5 orders of insects. The results, which are summarized in the following tables, give the average mortality for the particular insect with a given benzimidazole for each concentration employed. […] These tables contain all results obtained during the summer trials.
# Southern Armyworm = Southern Armyworm Test; format: in vivo, Prodenia eridania (Lepidoptera); conditions: 48 h
# Experimental: Ten uniform Southern armyworm larvae about 1-1.5 cm. in length, grown on Henderson lima beans, are placed on excized bean leaves in petri dishes. The bean leaves are obtained and sprayed with the insecticide in the same way as are the snap bean leaves in the Mexican bean beetle test. The reference standards in this instance are leaves sprayed with 5 ml. 100 ppm DDT solution. Mortality counts are made 48 hours after spraying and again moribund larvae are counted as dead. Missing larvae which have probably been eaten are considered alive. The same rating scale is used as in the Mexican bean beetle test.
# Two-spotted Spider Mite = Two-spotted Spider Mite test; format: in vivo, Tetranychus urticae (Acarina); conditions: 48 h
# Experimental: The procedure in this test is the same as that in the previous aphid test, except that about 100 two-spotted spider mites from a stock colony raised on squash plants are transferred to a cut squash cotyledon. The mortality is estimated 48 hours after spraying. The same rating scale is used.
# House Fly = assay: Housefly (Contact) Test; format: in vivo, Musca domestica (Diptera); conditions: 24 h
# Experimental: Rearing cages containing four-day old adult house flies are chilled at 35°-40° F. for about 1 hour. One hundred flies are transferred from the rearing cage to each test cage using a small scoop. The caged flies are kept for 1-2 hours at 70°-80° F. The cages are sprayed in the same manner as described for the milkweed bug with 5 ml. of the test formulation. Two unsprayed cages are held as controls and two cages are sprayed with a 50 ppm DDT formulation as a reference standard. Mortality counts are made 24 hours after spraying. […] The same rating scale is employed as heretofore.
# Picnic Beetle = assay: Field trial (first summer), topical; format: in vivo; conditions: .078125 μg/μl
# How it was run: (§3)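 Field trial from the first summer in which 1 µl of test solution holding a set number of micrograms of benzimidazole was applied topically to larvae or adult insects. Mortality at a given route and concentration was scored on a 0–9 scale.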
# Confused Flour Beetle = assay: Field trial (first summer), topical; format: in vivo
# How it was run: as §3
molecule,measurement,setting,value
"CC(C)OC(=O)n1c(C(F)(F)F)nc2c([N+](=O)[O-])cc(C(F)(F)F)cc21 [I, isopropyl 2,6-bis(trifluoromethyl)-4-nitro-1-benzimidazolecarboxylate]",mortality rating,Melon Aphid; 50 ppm,8.5
same,mortality rating,Melon Aphid; 250 ppm,6.5
same,average mortality rating,[1]; 10 ppm,3
same,average mortality rating,[1]; 25 ppm,4
same,average mortality rating,[1]; 50 ppm,2
same,average mortality rating,[2]; 10 ppm,2
same,average mortality rating,[2]; 25 ppm,6
same,average mortality rating,[2]; 50 ppm,7
same,average mortality rating,Alfalfa Weevil Larvae [3]; 500 ppm,1
same,average mortality rating,Alfalfa Weevil Larvae [3]; 750 ppm,2
same,average mortality rating,Alfalfa Weevil Larvae [3]; 1000 ppm,1
same,average mortality rating,[4]; 10 ppm,9 (91-100 percent mortality)
same,average mortality rating,[4]; 25 ppm,9 (91-100 percent mortality)
same,average mortality rating,[4]; 50 ppm,9 (91-100 percent mortality)
same,average mortality rating,[4]; 100 ppm,9 (91-100 percent mortality)
same,average mortality rating,[4]; 250 ppm,9 (91-100 percent mortality)
same,average mortality rating,Alfalfa Weevil Larvae [5]; 0.03 μg/μl,1
same,average mortality rating,Alfalfa Weevil Larvae [5]; 0.07 μg/μl,1
same,average mortality rating,Alfalfa Weevil Larvae [5]; 0.1 μg/μl,3
"O=[N+]([O-])c1cc(C(F)(F)F)cc2[nH]c(C(F)(F)Cl)nc12 [L, 2-chlorodifluoromethyl-4-nitro-6-trifluoromethylbenzimidazole]",mortality rating,Southern Armyworm; 500 ppm,1.5
same,mortality rating,Melon Aphid; 25 ppm,5.5
same,mortality rating,Two-spotted Spider Mite; 5 ppm,7.5
same,average mortality rating,[1]; 10 ppm,0 (0-10 percent)
same,average mortality rating,[1]; 25 ppm,4
same,average mortality rating,[1]; 50 ppm,5
"mixture of N,N-dimethyl-4-nitro-2,6-bis(trifluoromethyl)thio-1-benzimidazolecarboxamide and N,N-dimethyl-7-nitro-2,5-bis(trifluoromethyl)thio-1-benzimidazolecarboxamide [P]",mortality rating,Southern Armyworm; 250 ppm,0 (0-10)
same,mortality rating,Southern Armyworm; 500 ppm,0 (0-10)
same,mortality rating,Southern Armyworm; 1000 ppm,3.5
same,mortality rating,Melon Aphid; 10 ppm,0 (0-10)
same,mortality rating,Melon Aphid; 25 ppm,1.5
same,mortality rating,Melon Aphid; 100 ppm,4 (41-50)
same,mortality rating,Melon Aphid; 250 ppm,7 (71-80)
same,mortality rating,Melon Aphid; 500 ppm,7.5
same,mortality rating,Melon Aphid; 1000 ppm,4.5
same,mortality rating,Two-spotted Spider Mite; 1 ppm,3 (31-40)
same,mortality rating,Two-spotted Spider Mite; 5 ppm,4 (41-50)
same,mortality rating,Two-spotted Spider Mite; 10 ppm,4 (41-50)
same,mortality rating,Two-spotted Spider Mite; 25 ppm,6 (61-70)
same,mortality rating,Two-spotted Spider Mite; 50 ppm,7.0
same,mortality rating,Two-spotted Spider Mite; 100 ppm,7.5
same,mortality rating,Two-spotted Spider Mite; 250 ppm,8.5
same,mortality rating,Two-spotted Spider Mite; 500 ppm,9 (91-100)
same,mortality rating,Two-spotted Spider Mite; 1000 ppm,9 (91-100)
same,mortality rating,House Fly; 10 ppm,4.0
same,mortality rating,House Fly; 25 ppm,8.5
same,mortality rating,House Fly; 50 ppm,9 (91-100)
same,mortality rating,House Fly; 100 ppm,9 (91-100)
same,mortality rating,House Fly; 250 ppm,9 (91-100)
same,mortality rating,House Fly; 500 ppm,9 (91-100)
same,mortality rating,House Fly; 1000 ppm,9 (91-100)
same,insect mortality rating,Picnic Beetle,9 (91-100 percent mortality)
"mixture of benzyl 2,6-bis(trifluoromethyl)-4-nitro-1-benzimidazolecarboxylate and benzyl 2,5-bis(trifluoromethyl)-7-nitro-1-benzimidazolecarboxylate",mortality rating,Southern Armyworm; 100 ppm,2 (21-30)
same,mortality rating,Southern Armyworm; 500 ppm,6 (61-70)
same,mortality rating,Southern Armyworm; 1000 ppm,7 (71-80)
same,mortality rating,Melon Aphid; 100 ppm,0 (0-10)
same,mortality rating,Melon Aphid; 250 ppm,5 (51-60)
same,mortality rating,Melon Aphid; 500 ppm,9 (91-100)
same,mortality rating,Melon Aphid; 1000 ppm,8 (81-90)
same,mortality rating,Two-spotted Spider Mite; 10 ppm,8 (81-90)
same,mortality rating,Two-spotted Spider Mite; 25 ppm,7 (71-80)
same,mortality rating,Two-spotted Spider Mite; 50 ppm,9 (91-100)
same,mortality rating,Two-spotted Spider Mite; 100 ppm,9 (91-100)
same,mortality rating,Two-spotted Spider Mite; 250 ppm,9 (91-100)
same,mortality rating,Two-spotted Spider Mite; 500 ppm,9 (91-100)
same,mortality rating,Two-spotted Spider Mite; 1000 ppm,9 (91-100)
same,mortality rating,House Fly; 10 ppm,0 (0-10)
same,mortality rating,House Fly; 25 ppm,0 (0-10)
same,mortality rating,House Fly; 50 ppm,4 (41-50)
same,mortality rating,House Fly; 100 ppm,5.5
same,mortality rating,House Fly; 250 ppm,9 (91-100)
same,mortality rating,House Fly; 500 ppm,9 (91-100)
same,mortality rating,House Fly; 1000 ppm,9 (91-100)
same,average mortality rating,Alfalfa Weevil Larvae [3]; 500 ppm,4
same,average mortality rating,Alfalfa Weevil Larvae [3]; 750 ppm,4
same,average mortality rating,Alfalfa Weevil Larvae [3]; 1000 ppm,6
same,average mortality rating,Alfalfa Weevil Larvae [5]; 0.03 μg/μl,2
same,average mortality rating,Alfalfa Weevil Larvae [5]; 0.07 μg/μl,1
same,average mortality rating,Alfalfa Weevil Larvae [5]; 0.1 μg/μl,4
same,insect mortality rating,Confused Flour Beetle; .078125 μg/μl,9 (91-100 percent mortality)
same,insect mortality rating,Picnic Beetle,9 (91-100 percent mortality)
"mixture of phenyl 2,6-bis(trifluoromethyl)-4-nitro-1-benzimidazolecarboxylate and phenyl 2,5-bis(trifluoromethyl)-1-benzimidazolecarboxylate",mortality rating,Southern Armyworm; 250 ppm,1 (11-20)
same,mortality rating,Southern Armyworm; 500 ppm,1 (11-20)
same,mortality rating,Southern Armyworm; 1000 ppm,1 (11-20)
same,mortality rating,Melon Aphid; 25 ppm,0 (0-10)
same,mortality rating,Melon Aphid; 50 ppm,4 (41-50)
same,mortality rating,Melon Aphid; 100 ppm,8 (81-90)
same,mortality rating,Melon Aphid; 250 ppm,7 (71-80)
same,mortality rating,Melon Aphid; 500 ppm,8 (81-90)
same,mortality rating,Melon Aphid; 1000 ppm,6 (61-70)
same,mortality rating,Two-spotted Spider Mite; 10 ppm,5.5
same,mortality rating,Two-spotted Spider Mite; 25 ppm,2 (21-30)
same,mortality rating,Two-spotted Spider Mite; 50 ppm,8 (81-90)
same,mortality rating,Two-spotted Spider Mite; 100 ppm,9 (91-100)
same,mortality rating,Two-spotted Spider Mite; 250 ppm,9 (91-100)
same,mortality rating,Two-spotted Spider Mite; 500 ppm,9 (91-100)
same,mortality rating,Two-spotted Spider Mite; 1000 ppm,9 (91-100)
same,mortality rating,House Fly; 10 ppm,3 (31-40)
same,mortality rating,House Fly; 25 ppm,7 (71-80)
same,mortality rating,House Fly; 50 ppm,7 (71-80)
same,mortality rating,House Fly; 100 ppm,9 (91-100)
same,mortality rating,House Fly; 250 ppm,9 (91-100)
same,mortality rating,House Fly; 500 ppm,9 (91-100)
same,mortality rating,House Fly; 1000 ppm,9 (91-100)
same,average mortality rating,[2]; 10 ppm,0 (0-10 percent)
same,average mortality rating,[2]; 25 ppm,1
same,average mortality rating,[2]; 50 ppm,9 (91-100 percent mortality)
same,insect mortality rating,Confused Flour Beetle; .15625 μg/μl,9 (91-100 percent mortality)
